Results taken from EP4663640A1 (Shanghai Institute of Materia Medica, Chinese Academy of …, priority 2023, dated 2024).

Tests used:
[1] = test system: primary cultured mouse hepatic stellate cells (HSC); assay: Inhibition of TGF-β-induced hepatic stellate cell activation (α-SMA labeling); assay type: cell-based; settings: 1 µM compound, TGF-β 10 ng/mL, 24 hours; TGF-β alone 11.76 ± 1.47%, unstimulated 0.3 ± 0.04%; Mean ± SEM
Experimental: After primary cultured mouse hepatic stellate cells (HSC) were plated on 96-well black-bottom permeable plates for 24 hours, they were pre-incubated with 1 µM compound E21 and solvent control 0.1% DMSO for 1 hour, and then TGF-β was added to a final concentration of 10 ng/mL, and continued to be cultured in a CO2 incubator for 24 hours. Then the culture medium was aspirated, the plates were washed with 37 °C PBS solution for 3 times, and 4% paraformaldehyde solution was added for 30 minutes for fixation. Then 0.15% Triton X-100 solution was added for permeabilization for 10 minutes; then 5% BSA solution was added for blocking at room temperature for 1 hour; then anti-α-SMA solution (1:300) prepared with 5% BSA solution was added and incubated at 4 °C overnight; the next day, Alexa-488 anti-rabbit fluorescent secondary antibody (1:1000) prepared with 5% BSA solution was added and incubated at room temperature for 1 hour in the dark. […] After the end, the cells were washed 3 times with PBS solution and fluorescence photography was performed. The FITC filter was used to shoot green fluorescence, and the DAPI filter was used to shoot blue fluorescence. ImageJ software was used to count the total number of cells in each field of view, and the number of α-SMA positive cells was manually counted. […]

[2] = Liver microsome stability test, human
[3] = Preliminary pharmacokinetic evaluation, plasma drug concentration after oral administration to mice; assay type: in vivo, ICR mice; settings: male, ICR, mouse, oral 10 mg/kg, Mean ± SD, N = 3
[4] = Liver microsome stability test, mouse; assay type: in vitro ADME; settings: Mouse liver microsomes
Source text: Calculation of Intrinsic Clearance: Clint = (1000 × slope)/(P); [formula]

| MF % ([2]; Human liver microsomes, metabolic bioavailability) | half-life at 1 µM ([2]; human, liver microsomes, pH 7.4) | concentration at 1 h ([3]; 1h) | concentration at 4 h ([3]; 4h) | MF % ([4]; metabolic bioavailability) | half-life at 1 µM ([4]; pH 7.4, 1µM compound, read-out: Half-life T1/2) | Compound | proportion of α-SMA-positive cells [1] | Stability Evaluation ([2]; Human liver microsomes) | Stability Evaluation [4] |
| --- | --- | --- | --- | --- | --- | --- | --- | --- | --- |
| – | – | – | – | – | – | Cn1c(=O)n(CCCO)c(=O)c2c1nc(C1(F)CCC(C(F)(F)F)CC1)n2Cc1ccc(Cl)cc1 (stereo not drawn) [Example E21, 7-(4-chlorobenzyl)-8-(1-fluoro-4-(trifluoromethyl)cyclohexyl)-1-(3-hydroxypropyl)-3-methyl-3,7-dihydro-1H-purine-2,6-dione] | 5.20 ± 0.74% | – | – |
| 55.2% | 2.2 h | 2700 ± 54 ng/mL | 1890 ± 213 ng/mL | 49.3% | 0.767 h | Cn1c(=O)n(CCCO)c(=O)c2c1nc(C1(F)CCC(F)(F)CC1)n2Cc1ccc(F)c(Cl)c1 [Example E68, 7-(3-chloro-4-fluorobenzyl)-1-(3-hydroxypropyl)-3-methyl-8-(1,4,4-trifluorocyclohexyl)-3,7-dihydro-1H-purine-2,6-dione] | – | Medium (30%<MF%<70%, medium metabolic stability) | Medium (30%<MF%<70%, medium metabolic stability) |
